The record followed here is ChEMBL document CHEMBL4325844, “Development of 2-amino-4-phenylthiazole analogues to disrupt myeloid differentiation factor 88 and prevent inflammatory responses in acute lung injury” (Eur J Med Chem, 2019).

Molecules are shown by their SMILES. Calls of active or inactive are those of the source. No cut-off for these calls is given here.

By inhibition is commonly meant the share of the control response that was lost under treatment.

For assay [1], the system named is Mus musculus. Description: Antiinflammatory activity in LPS-induced C57/BL6 mouse model of acute lung injury assessed as reduction in neutrophil inflammatory infiltration at 10 mg/kg, ip pretreated for 30 mins followed by LPS challenge measured after 6 hrs by F4/80/hematoxylin staining based microscopic analysis. In kind it is functional, organism-based.
For assay [2], the system named is Peritoneal macrophage. The assay can be described thus: Antiinflammatory activity in ICR mouse primary peritoneal macrophages assessed as inhibition of LPS-induced IL-6 production at 20 uM preincubated for 60 mins followed by LPS stimulation and measured after 24 hrs by ELISA relative to control. It is filed as functional. For orientation: ELISA stands for enzyme-linked immunosorbent assay.

Assay [3] concerns Mus musculus. Description: Antiinflammatory activity in LPS-induced C57/BL6 mouse model of acute lung injury assessed as reduction in lung tissue destruction at 10 mg/kg, ip pretreated for 30 mins followed by LPS challenge measured after 6 hrs by hematoxylin and eosin staining based microscopic analysis. In kind it is functional, organism-based.
In assay [4] the target is Myeloid differentiation primary response protein MyD88 (Mus musculus) (UniProt P22366). Description: Inhibition of MyD88 in ICR mouse primary peritoneal macrophages assessed as reduction in LPS-induced IkappaB levels at 20 uM preincubated for 30 mins followed by LPS-stimulation and measured after 20 mins by Western blot analysis. (In general: Immunoblotting shows a protein as a band on a membrane.)

For assay [5] the target is unchanged. Description: Inhibition of MyD88 in ICR mouse primary peritoneal macrophages assessed as reduction in LPS-induced p38 MAPK phosphorylation at 20 uM preincubated for 30 mins followed by LPS-stimulation and measured after 20 mins by Western blot analysis.
Assay [6] deals with Toll-like receptor 4/MD-2 (Homo sapiens) (UniProt O00206+Q9Y6Y9). The assay can be described thus: Inhibition of LPS-induced HA/FLAG-tagged TLR4 (unknown origin) interaction with MD2 (unknown origin) expressed in HEK293 cells at 20 uM after 48 hrs by co-immunoprecipitation method. In kind it is cell-based.
Assay [7] has as its system Peritoneal macrophage. Description: Potency index, ratio of TJ-M2010-5 IC50 to test compound IC50 for inhibition of LPS-induced TNFalpha production in ICR mouse primary peritoneal macrophages. In kind it is functional.
Assay [8] deals with Mus musculus. Description: Antiinflammatory activity in LPS-induced C57/BL6 mouse model of acute lung injury assessed as reduction in TNFalpha level in serum at 10 mg/kg, ip pretreated for 30 mins followed by LPS challenge measured after 6 hrs by ELISA. In kind it is functional, organism-based.
The target of assay [9] is Toll-like receptor 4/Ly96 (Mus musculus) (UniProt Q9QUK6+Q9JHF9). The assay can be described thus: Inhibition of TLR4/MD2 interaction in LPS-induced mouse RAW264.7 at 20 uM measured after 30 mins by co-immunoprecipitation method. It is filed as cell-based.

Chain of Myeloid differentiation primary response protein MyD88 (Mus musculus) (P22366 whole entry): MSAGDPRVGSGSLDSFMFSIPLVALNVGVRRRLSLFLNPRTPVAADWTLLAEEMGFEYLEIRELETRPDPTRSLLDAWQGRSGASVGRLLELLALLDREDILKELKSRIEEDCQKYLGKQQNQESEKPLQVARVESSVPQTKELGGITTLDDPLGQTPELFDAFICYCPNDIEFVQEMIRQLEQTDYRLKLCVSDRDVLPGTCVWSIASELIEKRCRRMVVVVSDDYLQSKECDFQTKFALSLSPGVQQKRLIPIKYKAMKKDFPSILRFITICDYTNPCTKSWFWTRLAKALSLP

For the compound `COc1cc(-c2csc(NC(=O)CCN3CCN(Cc4cccc([N+](=O)[O-])c4)CC3)n2)ccc1O`, the outcome in [1], in assay [3] and in assay [8] was Active. Moreover, in assay [2], the inhibition at 20 µM amounted to 95%. Moreover, the inhibition result in [4] and in [5] was “Active” throughout. The inhibition result in assay [6] and in assay [9] was “inactive” throughout. Moreover, the “Ratio IC50” value in assay [7] came to 13.
